Laboratory results: PubChem BioAssay (NCI)
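Test compounds were applied to cells in 96-well plates for 48 hours at 5 doses. Here, GI50 denotes the concentration required for 50% inhibition of growth. TGI is the concentration that stops growth completely.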

Legend:
Assay in all cases: growth of human tumour cells (NCI), 48 h
[1] = test system: TK-10 renal
[2] = test system: OVCAR-8 ovarian
[3] = test system: IGROV1 ovarian
[4] = test system: CCRF-CEM leukemia
[5] = test system: SF-295 CNS
[6] = test system: OVCAR-5 ovarian
[7] = test system: LXFL 529 NSCLC
[8] = test system: NCI-H226 lung
[9] = test system: HCC-2998 colon
[10] = test system: A549 NSCLC
[11] = test system: SK-OV-3 ovarian
[12] = test system: HOP-92 NSCLC
[13] = test system: MALME-3M melanoma
[14] = test system: RXF 393 renal
[15] = test system: NCI-H460 lung
[16] = test system: NCI-H522 lung
[17] = test system: OVCAR-4 ovarian
[18] = test system: HCT-15 colon
[19] = test system: M19-MEL melanoma
[20] = test system: SF-268 CNS
[21] = test system: SF-539 CNS
[22] = test system: MOLT-4 leukemia
[23] = test system: XF 498 CNS
[24] = test system: A498 renal
[25] = test system: KM12 colon
[26] = test system: K-562 leukemia
[27] = test system: HCT-116 colon
[28] = test system: SR leukemia
[29] = test system: HOP-62 NSCLC
[30] = test system: SW-620 colon
[31] = test system: HL-60(TB) leukemia
[32] = test system: UO-31 renal
[33] = test system: U251 CNS
[34] = test system: UACC-257 melanoma
[35] = test system: DLD-1 colon
[36] = test system: 786-0 renal
[37] = test system: HT29 colon
[38] = test system: SK-MEL-2 melanoma
[39] = test system: M14 melanoma
[40] = test system: NCI-H23 lung
[41] = test system: COLO 205 colon
[42] = test system: RPMI-8226 leukemia
[43] = test system: ACHN renal
[44] = test system: SK-MEL-28 melanoma
[45] = test system: KM20L2 colon
[46] = test system: EKVX NSCLC
[47] = test system: LOX IMVI melanoma
[48] = test system: DMS 273 small cell lung
[49] = test system: SN12C renal
[50] = test system: SNB-78 CNS
[51] = test system: SNB-19 CNS
[52] = test system: OVCAR-3 ovarian
[53] = test system: HOP-18 NSCLC
[54] = test system: CAKI-1 renal
[55] = test system: SNB-75 CNS
[56] = test system: SK-MEL-5 melanoma
[57] = test system: DMS 114 small cell lung
[58] = test system: UACC-62 melanoma

**Q.** Which results are given for `Cc1cn(C2CC(OC3CCCCO3)C(CO)O2)c(=O)[nH]c1=O` (configuration not stated)?
**A.** TGI [1]: > 100 µM; TGI [2]: > 100 µM; TGI [3]: > 100 µM; TGI [4]: > 100 µM; TGI [5]: > 100 µM; TGI [6]: > 100 µM; TGI [7]: > 100 µM; TGI [8]: > 100 µM; TGI [9]: > 100 µM; TGI [10]: > 100 µM; TGI [11]: > 100 µM; TGI [12]: > 100 µM; TGI [13]: > 100 µM; TGI [14]: > 100 µM; TGI [15]: > 100 µM; TGI [16]: > 100 µM; TGI [17]: > 100 µM; TGI [18]: > 100 µM; TGI [19]: > 100 µM; TGI [20]: > 100 µM; TGI [21]: > 100 µM; TGI [22]: > 100 µM; TGI [23]: > 100 µM; TGI [24]: > 100 µM; TGI [25]: > 100 µM; TGI [26]: > 100 µM; TGI [27]: > 100 µM; TGI [28]: > 100 µM; TGI [29]: > 100 µM; TGI [30]: > 100 µM; TGI [31]: > 100 µM; TGI [32]: > 100 µM; TGI [33]: > 100 µM; TGI [34]: > 100 µM; TGI [35]: > 100 µM; TGI [36]: > 100 µM; TGI [37]: > 100 µM; TGI [38]: > 100 µM; TGI [39]: > 100 µM; TGI [40]: > 100 µM; TGI [41]: > 100 µM; TGI [42]: > 100 µM; TGI [43]: > 100 µM; TGI [44]: > 100 µM; TGI [45]: > 100 µM; TGI [46]: > 100 µM; TGI [47]: > 100 µM; TGI [48]: > 100 µM; TGI [49]: > 100 µM; TGI [50]: > 100 µM; TGI [51]: > 100 µM; TGI [52]: > 100 µM; TGI [53]: > 100 µM

**Q.** What does the source list for `[N-]=[N+]=Nc1cc(=O)n(-c2ccccc2)c2ccccc12`?
**A.** TGI [1]: > 100 µM; TGI [2]: > 100 µM; TGI [3]: > 100 µM; TGI [4]: > 100 µM; TGI [5]: > 100 µM; TGI [6]: > 100 µM; TGI [7]: > 100 µM; TGI [8]: > 100 µM; TGI [10]: > 100 µM; TGI [11]: > 100 µM; TGI [54]: > 100 µM; TGI [13]: > 100 µM; TGI [14]: > 100 µM; TGI [15]: > 100 µM; TGI [16]: > 100 µM; TGI [17]: > 100 µM; TGI [18]: > 100 µM; TGI [19]: > 100 µM; TGI [55]: > 100 µM; TGI [20]: > 100 µM; TGI [21]: > 100 µM; TGI [22]: > 100 µM; TGI [25]: > 100 µM; TGI [56]: > 100 µM; TGI [26]: > 100 µM; TGI [27]: > 100 µM; TGI [28]: > 100 µM; TGI [29]: > 100 µM; TGI [57]: > 100 µM; TGI [58]: > 100 µM; TGI [30]: > 100 µM; TGI [31]: > 100 µM; TGI [32]: > 100 µM; TGI [33]: > 100 µM; TGI [34]: > 100 µM; TGI [35]: > 100 µM; TGI [36]: > 100 µM; TGI [37]: > 100 µM; TGI [38]: > 100 µM; TGI [39]: > 100 µM; TGI [40]: > 100 µM; TGI [41]: > 100 µM; TGI [42]: > 100 µM; TGI [43]: > 100 µM; TGI [44]: > 100 µM; TGI [47]: > 100 µM; TGI [48]: > 100 µM; TGI [49]: > 100 µM; TGI [53]: > 100 µM

**Q.** For `COc1cc2c(c(OC)c1OC)-c1ccc(SC)c(=O)cc1[C@@H](NCc1ccccc1[N+](=O)[O-])CC2`, which TGI [1] is on record?
**A.** The TGI was greater than 100 µM.

**Q.** And the TGI [2]?
**A.** The TGI was 0.0499 µM.

**Q.** What about the TGI [4] of the same molecule?
**A.** Its TGI is 38.5 µM.

**Q.** And the TGI [5]?
**A.** The TGI was greater than 100 µM.

**Q.** And the GI50 [6]?
**A.** Its GI50 is greater than 100 µM.

**Q.** And the TGI [6]?
**A.** Its TGI is greater than 100 µM.

**Q.** And the TGI [7]?
**A.** Its TGI is 15.8 µM.

**Q.** And the TGI [8]?
**A.** Its TGI is 0.0558 µM.

**Q.** And the TGI [9]?
**A.** The TGI was 0.0407 µM.

**Q.** And the TGI [10]?
**A.** Its TGI is greater than 100 µM.

**Q.** And the TGI [54]?
**A.** Its TGI is greater than 100 µM.

**Q.** And the TGI [12]?
**A.** The TGI was greater than 100 µM.

**Q.** What about the TGI [13] of the same molecule?
**A.** The TGI was greater than 100 µM.

**Q.** And the TGI [15]?
**A.** The TGI was 0.0826 µM.

**Q.** What about the TGI [16] of the same molecule?
**A.** Its TGI is 0.0298 µM.

**Q.** What about the TGI [17] of the same molecule?
**A.** Its TGI is greater than 100 µM.

**Q.** What about the TGI [18] of the same molecule?
**A.** Its TGI is 0.0487 µM.

**Q.** What about the TGI [19] of the same molecule?
**A.** The TGI was greater than 100 µM.

**Q.** What about the GI50 [55] of the same molecule?
**A.** Its GI50 is 1.53 µM.

**Q.** And the TGI [21]?
**A.** The TGI was 0.0199 µM.

**Q.** What about the TGI [22] of the same molecule?
**A.** The TGI was greater than 100 µM.

**Q.** And the TGI [24]?
**A.** The TGI was 0.0283 µM.

**Q.** And the TGI [25]?
**A.** The TGI was 0.117 µM.

**Q.** What about the GI50 [26] of the same molecule?
**A.** Its GI50 is 0.171 µM.

**Q.** And the TGI [26]?
**A.** The TGI was greater than 100 µM.

**Q.** What about the TGI [27] of the same molecule?
**A.** The TGI was 0.0278 µM.

**Q.** What about the TGI [29] of the same molecule?
**A.** The TGI was greater than 100 µM.

**Q.** What about the TGI [57] of the same molecule?
**A.** Its TGI is 0.0243 µM.

**Q.** And the TGI [58]?
**A.** The TGI was 18.2 µM.

**Q.** And the TGI [30]?
**A.** Its TGI is greater than 100 µM.

**Q.** And the TGI [32]?
**A.** Its TGI is greater than 100 µM.

**Q.** And the TGI [33]?
**A.** The TGI was 0.0419 µM.

**Q.** What about the TGI [34] of the same molecule?
**A.** Its TGI is 47.2 µM.

**Q.** What about the TGI [35] of the same molecule?
**A.** Its TGI is greater than 100 µM.

**Q.** And the TGI [36]?
**A.** The TGI was 41.5 µM.

**Q.** And the TGI [37]?
**A.** The TGI was 0.0146 µM.

**Q.** What about the TGI [39] of the same molecule?
**A.** Its TGI is 0.21 µM.

**Q.** What about the TGI [40] of the same molecule?
**A.** Its TGI is 0.0237 µM.

**Q.** And the TGI [41]?
**A.** Its TGI is 0.0556 µM.

**Q.** And the TGI [42]?
**A.** Its TGI is 23.1 µM.

**Q.** What about the TGI [43] of the same molecule?
**A.** Its TGI is greater than 100 µM.

**Q.** What about the TGI [44] of the same molecule?
**A.** Its TGI is greater than 100 µM.

**Q.** And the TGI [45]?
**A.** Its TGI is 0.0112 µM.

**Q.** What about the TGI [46] of the same molecule?
**A.** The TGI was greater than 100 µM.

**Q.** And the TGI [47]?
**A.** Its TGI is 19 µM.

**Q.** And the TGI [50]?
**A.** Its TGI is 40.6 µM.

**Q.** What about the TGI [51] of the same molecule?
**A.** Its TGI is greater than 100 µM.

**Q.** And the TGI [52]?
**A.** Its TGI is 0.0293 µM.

**Q.** And the GI50 [53]?
**A.** Its GI50 is greater than 100 µM.

**Q.** And the TGI [53]?
**A.** Its TGI is greater than 100 µM.
